From EP0435725B1, “DNA having the genetic information of phospholipase D and its use” (Asahi Kasei Kogyo Kabushiki Kaisha, priority 1989, dated 1991)

System: phospholipase D
Experiment: Substrate specificity of phospholipase D (choline release, choline oxidase/peroxidase colorimetry at 500 nm)
Type: biochemical, Streptomyces chromofuscus
Conditions: substrate emulsion 10 mM, 0.1 ml; 37°C, 10 minutes, pH 8.0; relative to activity on lysolecithin as 100
Method: To the reaction mixture having a composition as above was added 0.05 ml of the enzyme solution. After reaction it 37°C for 10 minutes, the mixture was boiled for 5 minutes to stop the reaction. The reaction solution was cooled to 37°C. Then, 0.1 ml of 4-aminoantipyrine (3 mg/ml), 0.1 ml of Phenol (2 mg/ml), 0.1 ml of peroxidase (2 U/ml), 0.1 ml of choline oxidase (30 U/ml) and 0.1 ml of water were added to the solution, the reaction was conducted at 37°C for 20 minutes before adding 2 ml of 1% Triton X100 to the reaction mixture for measuring the absorbance at 500 nm. It is defined that 1 Unit (U) of phospholipase D has an enzyme activity of producing 1 […] of choline. The enzyme activity is calculated from the following equation: U/ml = ΔA₅₀₀ x 0.55 [formula] wherein ΔA₅₀₀ denotes the absorbance at 500 nm.
The same procedure as described above for the reaction solution for the measurement of the activity was repeated except that emulsions (10 mM, 0.1 ml) of lecithin, lysolecithin and sphingomyelin, respectively, as substrates were used. The amount of choline was determined, and the relative enzyme activities are calculated in terms of the enzyme activity to lysolecithin as 100.

Substance | Relative Activity
Lysolecithin | 100%
Sphingomyelin | 19%
phosphatidylcholine [Lecithin] | 51%
